In paper PMC10096175, “An In Vitro Antimicrobial, Anticancer and Antioxidant Activity of N–[(2–Arylmethylthio)phenylsulfonyl]cinnamamide Derivatives” (Molecules, 2023):
Values after ≈ are worked out from the molar mass of the structure shown. Like-named read-outs stand apart in the source and are kept apart here.

How the values were obtained:
E. coli ATCC 8739 = test: MIC determination, reference strain (microdilution); type: cell-based; conditions: Escherichia coli, ATCC8739; E. coli ATCC 8739; Co-trimoxazole as sulfamethoxazole/trimethoprim; read-out: MIC
E. hirae ATCC 10541 = test: as above; type: cell-based; conditions: Enterococcus hirae, ATCC10541; E. hirae ATCC 10541; Co-trimoxazole as sulfamethoxazole/trimethoprim; read-out: MIC
[1] = tested on: S. epidermidis ATCC 14990; test: as above; type: cell-based; conditions: Staphylococcus epidermidis, ATCC14990; S. epidermidis ATCC 14990; Co-trimoxazole as sulfamethoxazole/trimethoprim; read-out: MIC
HeLa cells = test: MTT assay; type: cell-based, human; conditions: for IC50: HeLa, MTT, 24 h treatment; for Selectivity index (SI): IC50 HEK-293 / IC50 HeLa
[2] = tested on: Staphylococcus sp. and Enterococcus sp.; test: MIC, summary statements on reference Gram-positive cocci; type: cell-based; conditions: Staphylococcus and Enterococcus species, reference Gram-positive cocci (range over strains)
Description: Sterile sheep blood defibrinated (GrasoBiotech). Co-trimoxazole (composition sulfamethoxazole 400 mg/trimethoprim 80 mg; WZF Polfa Poland). Ketoconazole (WZF Polfa Poland). Bacteria: Enterococcus hirae ATCC 10541 and Enterococcus faecalis ATCC 51299, Staphylococcus epidermidis ATCC 14990, Staphylococcus aureus ATCC 6538, clinical strains Staphylococcus aureus MRSA, clinical strains Staphylococcus sp. (MRCNS), clinical strain Staphylococcus epidermidis MRSE, clinical strain Enterococcus sp., Corynebacterium diphtheriae ZMF, Bacillus subtilis ATCC 6633, Escherichia coli ATCC 8739, Candida albicans ATCC 10231. Brain-heart infusion broth (BHI, Becton Dickinson) for Enterococcus hirae ATCC 10541 and Enterococcus faecalis ATCC 51299, BHI supplement with 10% bovine serum for Bacillus subtilis, Corynebacterium diphtheriae ZMF, Staphylococcus epidermidis ATCC 14990, Staphylococcus aureus ATCC 6538, clinical strains Staphylococcus aureus MRSA, clinical strains Staphylococcus sp. (CNS), clinical strain Staphylococcus epidermidis MRSE grew in Mueller-Hinton broth (MH cation-adjusted, Becton Dickinson) in an aerobic atmosphere at 37 °C for 48 h, in an aerobic atmosphere at 37 °C for 72 h. Candida albicans grew in Sabourauda broth (Sb, Becton Dickinson), in an aerobic atmosphere at 37 °C for 72 h. After determination of the bacterial viability, BHI blood agar plates, MH agar plates, and Sb agar plates were used.
The MIC determination for the reference and clinical strains was performed based on the methodology described by Kula et al.. The dry test samples were dissolved in dimethyl sulfoxide (DMSO) and diluted in water, resulting in a finale concentration of about 500 µg/mL. These solutions were diluted and added to the first well of each microtiter line. Dilution in geometric progression was done by transferring the mixture/dilution (100 μL) from the first to the twelfth well. An aliquot (100 μL) was discarded from the twelfth well. The final concentration of the samples used in the antimicrobial activity assay ranged from 125 to 0.006 µg/mL. Co-trimoxazole (for bacteria), with the composition sulfamethoxazole 400 mg/trimethoprim 80 mg was used as a reference compound in the concentration range of 20 000/4000 to 1/0.2 µg/mL. Ketoconazole (for fungi) was used as a reference compound in the concentration range of 125 to 0.006 µg/mL. Tests were incubated in adequate conditions described by Kula et al.. Diluent concentration had no effect on the activity of the tested compounds. All experiments were carried out three times.

ABTS assay = conditions: ABTS radical scavenging; 10 min, 30 °C
Description: The ABTS assay was performed spectrophotometrically. […] ABTS solution with methanol/DMSO (9/1 v/v) was used as a control. After 10 min of incubation at 30 °C in the dark, the absorbance was analyzed at λ = 750 nm by a 96-well microplate reader (Epoch, BioTek System, Santa Clara, CA, USA). Ascorbic acid was used as a standard.
ABTS inhibition was calculated by the following equation:ABTS Inhibition (%) = [Acontrol − Asample)/Acontrol] × 100%
(§1) IC50 values of the samples were calculated using program GraFit v. 7.0 (Erithacus Software). The analysis was performed three times, with tree replications in each (n = 9). Statistical analysis was performed with one-way ANOVA with Tuckey’s post-hoc test.

E. faecalis ATCC 51299 = test: MIC determination, reference strain (microdilution); type: cell-based; conditions: Enterococcus faecalis, ATCC51299; E. faecalis ATCC 51299; Co-trimoxazole as sulfamethoxazole/trimethoprim; read-out: MIC
SKOV-3 cells = test: MTT assay; type: cell-based, human; conditions: for IC50: Homo sapiens, SK-OV-3, SKOV-3, MTT, 24 h treatment, read-out: IC50; for Selectivity index (SI): IC50 HEK-293 / IC50 SKOV-3
B. subtilis ATCC 6633 = test: MIC determination, reference strain (microdilution); type: cell-based; conditions: Bacillus subtilis, ATCC6633; B. subtilis ATCC 6633; Co-trimoxazole as sulfamethoxazole/trimethoprim; read-out: MIC
DPPH assay = conditions: DPPH radical scavenging; 40 min, room temperature
Description: The DPPH assay was performed spectrophotometrically. The amount of 30 µL of different concentrations of samples, dissolved in methanol/DMSO (9/1 v/v), was mixed with 170 µL of 0.06 mM DPPH methanolic solution and completed with methanol to a final volume of 300 µL. DPPH methanolic solution with methanol/DMSO (9/1 v/v) was used as a control. After 40 min of incubation at room temperature in the dark, the absorbance was analyzed at λ = 510 nm by a 96-well microplate reader (Epoch, BioTek System, Santa Clara, CA, USA). Ascorbic acid was used as a standard.
DPPH inhibition was calculated by the following equation:DPPH Inhibition (%) = [Acontrol − Asample)/Acontrol] × 100%
as §1

[3] = tested on: cancer cells (HeLa, SKOV-3, MCF-7); test: MTT assay, summary statements on the cancer cells; type: cell-based; conditions: Homo sapiens, cell line not specified
S. aureus ATCC 6538 = test: MIC determination, reference strain (microdilution); type: cell-based; conditions: Staphylococcus aureus, ATCC6538; S. aureus ATCC 6538; ± SD; Co-trimoxazole as sulfamethoxazole/trimethoprim; read-out: MIC
C. albicans ATCC 10231 = test: MIC determination, reference fungal strain (microdilution); type: cell-based; conditions: Candida albicans, ATCC10231; C. albicans ATCC 10231; read-out: MIC
[4] = tested on: clinical methicillin-resistant S. aureus (MRSA) strains; test: MIC on clinical MRSA strains; type: cell-based; conditions: Staphylococcus aureus, MRSA / VISA; strains MRSA12673, MRSA21804, MRSA18532, MRSA12647 and MRSAN315 VISA
Excerpt: In the next step, we evaluated the compounds on clinical methicillin-resistant S. aureus (MRSA) strains (Figure 2) and methicillin-resistant coagulase-negative Staphylococcus (MRCNS) (Figure 3). The group of CNS includes nonpathogenic or opportunistic pathogens, while coagulase-positive staphylococci are represented by S. aureus. About 30% of the human population carries S. aureus in the upper respiratory tract. Infections caused by S. aureus include all purulent skin conditions (boils, abscesses, folliculitis) and nosocomial infections. The strains isolated from hospitals are usually antibiotic-resistant, where MRSA strains are the majority. Staphylococcus epidermidis (like other coagulase-negative Staphylococcus) is included in the microflora of human skin and can easily cause surface contamination after surgical procedures.
Sterile sheep blood defibrinated (GrasoBiotech). Co-trimoxazole (composition sulfamethoxazole 400 mg/trimethoprim 80 mg; WZF Polfa Poland). Ketoconazole (WZF Polfa Poland). Bacteria: Enterococcus hirae ATCC 10541 and Enterococcus faecalis ATCC 51299, Staphylococcus epidermidis ATCC 14990, Staphylococcus aureus ATCC 6538, clinical strains Staphylococcus aureus MRSA, clinical strains Staphylococcus sp. […]

MCF-7 cells = test: MTT assay; type: cell-based, human; conditions: for IC50: Homo sapiens, MCF7, MCF-7, MTT, 24 h treatment, read-out: IC50; for Selectivity index (SI): IC50 HEK-293 / IC50 MCF-7
HEK-293 cells = test: MTT assay, noncancerous cells; type: cell-based; conditions: Homo sapiens, HEK293; HEK-293; MTT, 24 h treatment; read-out: IC50
C. diphtheriae = test: MIC determination, reference strain (microdilution); type: cell-based; conditions: Corynebacterium diphtheriae; C. diphtheriae; Co-trimoxazole as sulfamethoxazole/trimethoprim; read-out: MIC
[5] = tested on: mouse melanoma B16–F10 cell line; design: method as in PMID 21783370; conditions: cited from earlier work
[6] = tested on: quorum sensing system of C. violaceum; design: method as in doi:10.1016/j.ibiod.2018.06.003; conditions: at 1 mM; cited from earlier work
S. aureus = tested on: S. aureus; design: method as in PMID 19231901; conditions: cited from earlier work
E. coli = tested on: E. coli; design: method as in PMID 19231901; conditions: cited from earlier work
[7] = tested on: clinical strains of Enterococcus sp.; test: MIC on clinical Enterococcus strains; type: cell-based
in vitro = conditions: sheep, defibrinated sheep blood diluted 1:9 v/v with PBS, pH 7
[8] = tested on: human breast cancer MCF-7 cells; design: method as in PMID 30389289; conditions: cited from earlier work
[9] = Homo sapiens, 24 h, read-out: IC50

| Compound | MIC (E. coli ATCC 8739) [µg/mL] | MIC (E. hirae ATCC 10541) [µg/mL] | MIC [1] [µg/mL] | IC50 (HeLa cells; [9]) [µg/mL] | Selectivity index (SI) (HeLa cells) | IC50 ABTS (ABTS assay) [µg/mL] | MIC (E. faecalis ATCC 51299) [µg/mL] | IC50 (SKOV-3 cells) [µg/mL] | Selectivity index (SI) (SKOV-3 cells) | MIC (B. subtilis ATCC 6633) [µg/mL] | IC50 DPPH (DPPH assay) [µg/mL] | MIC (S. aureus ATCC 6538) [µg/mL] | MIC (C. albicans ATCC 10231) [µg/mL] | MIC [4] [µg/mL] | IC50 (MCF-7 cells) [µg/mL] | Selectivity index (SI) (MCF-7 cells) | IC50 (HEK-293 cells) [µg/mL] | MIC (C. diphtheriae) [µg/mL] | IC50 [5] [µg/mL] | also measured |
| --- | --- | --- | --- | --- | --- | --- | --- | --- | --- | --- | --- | --- | --- | --- | --- | --- | --- | --- | --- | --- |
| Cc1cc(S(=O)(=O)NC(=O)/C=C/c2ccc(Br)cc2)c(SCc2cc3c(cc2Cl)OCO3)cc1Cl [Compound 17a, (E)-3-(4-Bromophenyl)-N-{4-chloro-2-[(6-chlorobenzo[d][1,3]dioxol-5-yl)methylthio]-5-methylphenylsulfonyl}acrylamide] | > 125 | 2 ± 0.58 (≈ 3.25 µM) | 1 ± 0.58 (≈ 1.63 µM) | < 10 | 0.8 | 569.99 ± 7.9 (≈ 926 µM) | 2 ± 0.58 (≈ 3.25 µM) | 13.15 ± 0.05 (≈ 21.4 µM) | 0.5 | 62.5 ± 0.29 (≈ 102 µM) | 790.52 ± 1.44 (≈ 1280 µM) | 1 ± 0.29 (≈ 1.63 µM) | > 125 | 8 to 16 (≈ 13 to 26 µM) | 13 ± 0.66 (≈ 21.1 µM) | 0.5 | 6.49 ± 0.46 (≈ 10.5 µM) | > 125 |  | IC50 (HeLa cells): 8.49 ± 0.49 µg/mL (≈ 13.8 µM); MIC [2]: 1 to 2 µg/mL (≈ 1.63 to 3.25 µM); IC50 ([3]; MTT): < 10 µg/mL; IC50 ([3]; µg/mL bound converted): ≤ 20 µM |
| O=C(/C=C/c1ccc(F)cc1)NS(=O)(=O)c1ccc(F)cc1 [(E)–3–(4–fluorophenyl)–N–(4-fluorophenylsulfonyl)acrylamide] |  |  |  |  |  |  |  |  |  |  |  |  |  |  |  |  |  |  | 0.8 (≈ 2.47 µM) |  |
| COC(=O)/C=C/c1ccccc1 [methyl trans-cinnamate] |  |  |  |  |  |  |  |  |  |  |  |  |  |  |  |  |  |  |  | Quorum sensing inhibition [6]: completely inhibit; Concentration that completely inhibited growth (S. aureus): 3.1 mM; Concentration that completely inhibited growth (E. coli): 6.2 mM |
| O=C(/C=C/c1ccc(Br)cc1)NS(=O)(=O)c1ccc(F)cc1 [(E)–3–(4–bromophenyl)–N–(4–fluorophenylsulfonyl)acrylamide] |  |  |  |  |  |  |  |  |  |  |  |  |  |  |  |  |  |  | 1.2 (≈ 3.12 µM) |  |
| Cc1cc(S(=O)(=O)NC(=O)/C=C/c2ccc(F)cc2)c(SCc2cc3c(cc2Cl)OCO3)cc1Cl [Compound 17b, (E)–N–{4–Chloro–2–[(6–chlorobenzo[d][1,3]dioxol–5–yl)methylthio]–5–methylphenylsulfonyl}–3–(4–fluorophenyl)acrylamide] | > 125 | 4 ± 0.15 (≈ 7.21 µM) | 2 ± 0.58 (≈ 3.61 µM) | 12 ± 0.44 (≈ 21.6 µM) | 0.6 | 620.39 ± 1.29 (≈ 1120 µM) | 4 ± 0.15 (≈ 7.21 µM) | 11 ± 0.5 (≈ 19.8 µM) | 0.6 | 62.5 ± 0.29 (≈ 113 µM) | 652.93 ± 2.39 (≈ 1180 µM) | 2 ± 0.29 (≈ 3.61 µM) | > 125 | > 125 | 14.8 ± 0.66 (≈ 26.7 µM) | 0.5 | 7.17 ± 0.44 (≈ 12.9 µM) | > 125 |  | MIC ([7]; Enteroccoccus sp. 3934825): > 125 µg/mL; MIC ([7]; Enterococcus sp. 12848): > 125 µg/mL; MIC ([7]; Enterococcus sp. 3937152, read-out: MIC): > 125 µg/mL; hemolysis at 24 h, 62.5 µg/mL (in vitro): 9% |
| O=C(/C=C/c1ccc2c(c1)OCO2)NS(=O)(=O)c1ccccc1 [(E)–3–(benzo[d][1,3]dioxol–5–yl)–N–(phenylsulfonyl)acrylamide] |  |  |  |  |  |  |  |  |  |  |  |  |  |  |  |  |  |  |  | IC50 [8]: 0.17 µg/mL (≈ 0.513 µM) |
